Results as given in the supplement of paper PMC10307832.

Key:
Assay in all cases: relative viability (nuclei count vs DMSO), 5 days (fraction); higher = more cells survive
ALW-II-49-7 + OSI-027 = compound: Cc1ccc(C(=O)Nc2cccc(C(F)(F)F)c2)cc1Nc1cncc(C(N)=O)c1 [ALW-II-49-7] + COc1cccc2cc(-c3nc([C@H]4CC[C@H](C(=O)O)CC4)n4ncnc(N)c34)[nH]c12 [OSI-027] (partner 0.5 µM)
In short: (§1)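 Nuclei were stained with Hoechst during a one-step fixation (final 0.05% Triton X-100, 1% formaldehyde, 1 ug/ml Hoechst) carried out 5 days after dosing, then counted on 4× images. The cells, lung cancer lines in 1536-well plates, had been dosed by pin tool the day after seeding with one drug alone or a fixed anchor-drug dose plus five library-drug doses (not always all listed) in √10 steps. Relative viability is the nuclei count in treated wells divided by that in vehicle wells, and each value is the median of duplicate plates.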

Dasatinib + Vorinostat = compound: Cc1nc(Nc2ncc(C(=O)Nc3c(C)cccc3Cl)s2)cc(N2CCN(CCO)CC2)n1 [Dasatinib] + O=C(CCCCCCC(=O)Nc1ccccc1)NO [Vorinostat] (partner 1 µM)
In short: as §1

Dasatinib + AZD7762 = compound: Cc1nc(Nc2ncc(C(=O)Nc3c(C)cccc3Cl)s2)cc(N2CCN(CCO)CC2)n1 [Dasatinib] + NC(=O)Nc1cc(-c2cccc(F)c2)sc1C(=O)N[C@H]1CCCNC1 [AZD7762] (partner 0.2 µM)
In short: as §1

ALW-II-49-7 + Decitabine = compound: Cc1ccc(C(=O)Nc2cccc(C(F)(F)F)c2)cc1Nc1cncc(C(N)=O)c1 [ALW-II-49-7] + Nc1ncn([C@H]2C[C@H](O)[C@@H](CO)O2)c(=O)n1 [Decitabine] (partner 2 µM)
In short: as §1

Cell Line | relative viability (ALW-II-49-7 + OSI-027; first compound 0.08 µM) | relative viability (ALW-II-49-7 + OSI-027; first compound 0.253 µM) | relative viability (ALW-II-49-7 + OSI-027; first compound 0.8 µM) | relative viability (ALW-II-49-7 + OSI-027; first compound 2.53 µM) | relative viability (ALW-II-49-7 + OSI-027; first compound 8 µM) | relative viability (Dasatinib + Vorinostat; first compound 0.005 µM) | relative viability (Dasatinib + Vorinostat; first compound 0.01581 µM) | relative viability (Dasatinib + Vorinostat; first compound 0.05 µM) | relative viability (Dasatinib + Vorinostat; first compound 0.1581 µM) | relative viability (Dasatinib + Vorinostat; first compound 0.5 µM) | relative viability (Dasatinib + AZD7762; first compound 0.005 µM) | relative viability (Dasatinib + AZD7762; first compound 0.01581 µM) | relative viability (Dasatinib + AZD7762; first compound 0.05 µM) | relative viability (Dasatinib + AZD7762; first compound 0.1581 µM) | relative viability (Dasatinib + AZD7762; first compound 0.5 µM) | relative viability (ALW-II-49-7 + Decitabine; first compound 0.08 µM) | relative viability (ALW-II-49-7 + Decitabine; first compound 0.253 µM) | relative viability (ALW-II-49-7 + Decitabine; first compound 0.8 µM) | relative viability (ALW-II-49-7 + Decitabine; first compound 2.53 µM) | relative viability (ALW-II-49-7 + Decitabine; first compound 8 µM)
HCC-366 | 0.977 | 1.17 | 0.731 | 0.985 | 0.627 | 0.377 | 0.225 | 0.312 | 0.238 | 0.22 | 0.234 | 0.248 | 0.143 | 0.159 | 0.0931 | 0.354 | 0.371 | 0.374 | 0.385 | 0.307
NCI-H2126 | 0.664 | 0.64 | 0.65 | 0.607 | 0.653 | 0.796 | 0.597 | 0.755 | 0.521 | 0.312 | 0.971 | 0.847 | 0.98 | 0.885 | 0.511 | 0.604 | 0.562 | 0.545 | 0.587 | 0.592
HCC-78 | 0.34 | 0.394 |  | 0.36 | 0.395 | 0.373 | 0.354 | 0.324 | 0.336 | 0.219 | 0.668 | 0.618 | 0.472 | 0.372 | 0.226 | 0.68 | 0.639 | 0.71 | 0.666 | 0.619
LCLC-97TM1 | 0.514 | 0.46 | 0.466 | 0.527 | 0.379 | 0.91 | 0.829 | 0.905 | 0.523 | 0.35 | 0.161 | 0.274 | 0.218 | 0.17 | 0.0853 | 0.256 | 0.201 | 0.252 | 0.236 | 0.207
NCI-H838 | 0.352 | 0.385 | 0.389 | 0.434 | 0.378 | 0.678 | 0.632 | 0.584 | 0.422 | 0.348 | 0.868 | 0.786 | 0.811 | 0.685 | 0.669 | 0.413 | 0.433 | 0.483 | 0.447 | 0.48
NCI-H2347 | 0.386 | 0.396 | 0.443 | 0.36 | 0.276 | 0.422 | 0.298 | 0.363 | 0.263 | 0.238 | 0.614 | 0.538 | 0.549 | 0.296 | 0.282 | 0.714 | 0.647 | 0.57 | 0.718 | 0.681
NCI-H441 | 0.657 | 0.57 | 0.867 | 0.48 | 0.466 | 0.778 | 0.651 | 0.887 | 0.813 | 0.581 | 1.27 | 1.01 | 0.904 | 0.723 | 0.364 | 0.257 | 0.229 | 0.253 | 0.208 | 0.253
NCI-H2342 | 0.532 | 0.535 | 0.602 | 0.592 | 0.562 | 0.734 | 0.654 | 0.603 | 0.458 | 0.339 | 0.469 | 0.384 | 0.383 | 0.341 | 0.315 | 0.714 | 0.767 | 0.697 | 0.693 | 0.783
NCI-H1944 | 0.393 | 0.413 | 0.397 | 0.353 | 0.303 | 0.573 | 0.527 | 0.452 | 0.196 | 0.169 | 0.41 | 0.388 | 0.294 | 0.21 | 0.187 | 0.421 | 0.432 | 0.423 | 0.486 | 0.389
NCI-H2405 | 0.634 | 0.643 | 0.583 | 0.558 | 0.609 | 0.838 | 0.597 | 0.427 | 0.188 | 0.227 | 0.656 | 0.514 | 0.368 | 0.212 | 0.228 | 0.699 | 0.751 | 0.75 | 0.685 | 0.722
HCC-15 | 0.647 | 0.75 | 0.619 | 0.663 | 0.536 | 0.85 | 0.719 | 0.842 | 0.655 | 0.669 | 1.37 | 1.12 | 1.07 | 0.897 | 0.585 | 0.596 | 0.654 | 0.626 | 0.624 | 0.644
